Results: patent USRE50642E1, “Anti-androgens for the treatment of non-metastatic castrate-resistant prostate cancer” (Aragon Pharmaceuticals, Inc., priority 2012, dated 2025)

Assays:
T877A AR mutant = target: T1, T877A AR mutant (Homo sapiens, UniProt P10275, T878A); conditions: cited from earlier work
T1 sequence (P10275 1-920 T878A): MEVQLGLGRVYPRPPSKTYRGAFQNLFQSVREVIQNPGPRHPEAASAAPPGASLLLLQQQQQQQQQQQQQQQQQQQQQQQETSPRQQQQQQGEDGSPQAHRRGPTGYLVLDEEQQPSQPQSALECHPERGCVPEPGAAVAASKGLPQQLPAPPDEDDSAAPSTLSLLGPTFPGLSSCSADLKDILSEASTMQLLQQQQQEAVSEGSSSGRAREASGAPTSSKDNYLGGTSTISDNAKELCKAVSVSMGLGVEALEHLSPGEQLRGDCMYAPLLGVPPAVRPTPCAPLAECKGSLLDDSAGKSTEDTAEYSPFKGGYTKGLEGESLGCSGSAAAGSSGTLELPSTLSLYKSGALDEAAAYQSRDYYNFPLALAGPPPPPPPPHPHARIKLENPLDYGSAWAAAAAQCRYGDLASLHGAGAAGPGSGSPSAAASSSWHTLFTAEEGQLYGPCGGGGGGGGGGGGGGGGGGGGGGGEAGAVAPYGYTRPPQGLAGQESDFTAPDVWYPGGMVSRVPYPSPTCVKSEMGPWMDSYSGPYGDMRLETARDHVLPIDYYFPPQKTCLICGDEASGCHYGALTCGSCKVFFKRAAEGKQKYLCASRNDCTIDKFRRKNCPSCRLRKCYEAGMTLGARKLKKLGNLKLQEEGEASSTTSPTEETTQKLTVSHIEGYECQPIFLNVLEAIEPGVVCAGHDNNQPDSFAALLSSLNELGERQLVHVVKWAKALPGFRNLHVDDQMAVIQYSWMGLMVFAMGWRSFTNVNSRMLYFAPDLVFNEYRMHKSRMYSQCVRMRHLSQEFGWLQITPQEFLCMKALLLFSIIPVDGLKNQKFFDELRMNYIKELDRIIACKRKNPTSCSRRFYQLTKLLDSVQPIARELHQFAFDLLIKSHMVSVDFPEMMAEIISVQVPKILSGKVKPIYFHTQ

[1] = test system: male humans with non-metastatic castration-resistant prostate cancer; experiment: Phase II clinical trial in non-metastatic castration-resistant prostate cancer, PSA decline from baseline; format: in vivo, human; conditions: 240 mg orally, continuous daily dosing schedule
[2] = test system: non-castrate hormone-sensitive and bicalutamide-resistant human prostate cancer xenograft models; conditions: non-castrate hormone-sensitive and bicalutamide-resistant xenografts; Clegg et al. Cancer Res 2012; cited from earlier work

Row | Compound | activity in T877A AR mutant (T877A AR mutant) | PSA50 (≥50% decline in PSA from baseline), share of males ([1]; at 3 months) [%] | PSA90 (≥90% decline in PSA from baseline), share of males ([1]; at 3 months) [%] | PSA50 (≥50% decline in PSA from baseline), share of males ([1]; at 6 months) [%] | PSA90 (≥90% decline in PSA from baseline), share of males ([1]; at 6 months) [%] | tumor regression [2]
1 | CC(C)(O)C(=O)Nc1ccc([N+](=O)[O-])c(C(F)(F)F)c1 [hydroxyflutamide] | act as AR agonists |  |  |  |  | 
2 | CNC(=O)c1ccc(N2C(=S)N(c3cnc(C#N)c(C(F)(F)F)c3)C(=O)C23CCC3)cc1F [4-[7-(6-cyano-5-trifluoromethylpyridin-3-yl)-8-oxo-6-thioxo-5,7-diazaspiro[3.4]oct-5-yl]-2-fluoro-N-methylbenzamide] |  | 91 | 38 | 91 | 55 | partial or complete tumor regression
